The values below come from patent publication US10604527B2, “Pyrazine compounds for the treatment of hepatitis B infection” (Hoffmann-La Roche Inc., priority 2016, dated 2020).

The test has as its system HBV. The test is described as follows: HBV inhibition assay in HepG2.2.15 cells (extracellular HBV DNA by qPCR). Format: cell-based. The conditions noted are these: Hepatitis B virus, 120 h, extracellular HBV DNA in culture supernatant by qPCR, five days after compound treatment. How it is done:
HepG2.2.15 is a stably-transfected cell line containing the HBV genome. It is derived from the hepatoblastoma cell line Hep G2 (American Type Culture Collection, ATCC® HB-8065™) by the published procedures described in reference: M A Selles et al. Proc. Natl. Acad. Sci. USA 1987, 84, 1005-1009. The cell line was maintained in Dulbecco's modified Eagle's medium (DMEM)-F12 medium supplemented with 10% fetal bovine serum, 20 mM L-glutamine, 0.1 mM NEAA, 50 U/mL penicillin, 50 μg/mL streptomycin, and 0.3 mg/mL of G418.
HepG2.2.15 cells were seeded into 96-well plates at a density of 3×10^4 cells per well in 100 μL DMEM/F12 media (Life Science, Cat. #: 11320-033) supplemented with 2.5% fetal bovine serum, 20 mM L-glutamine, 0.1 mM NEAA, 50 U/mL penicillin, 50 U/mL streptomycin and cultured overnight at 37° C. The test compounds were serially half-log diluted in DMSO, then diluted 100 times in culture media. 100 μL diluted solution of tested compounds were added into the plates to reach 0.5% final concentration of DMSO in every well. Five days after compound treatment, culture supernatant was collected for further analysis.
For quantitative PCR detection of extracellular HBV DNA, culture supernatant was processed by 500 μg/mL Proteinase K (Sigma, Cat. #: P2308) digestion at 50° C. for 1 hour. After heat inactivation of the enzyme at 95° C. for 15 minutes, the samples were subjected to HBV DNA quantification by qPCR. The effective compound concentration at which HBV replication inhibited by 50% (EC50) was determined.
A general note: Quantitative PCR measures a nucleic acid by following its amplification.

As to `C[C@H]1Cn2ncc(S(=O)(=O)N3CCOCC3)c2CN1C(=O)Nc1cc(F)c(F)c(F)c1` [Example 32, (6S)-6-methyl-3-morpholinosulfonyl-N-(3,4,5-trifluorophenyl)-6,7-dihydro-4H-pyrazolo[1,5-a]pyrazine-5-carboxamide], the concentration for a half-maximal effect (EC50) (commonly the concentration at which the effect is half-maximal) amounted to 179 nM.
The same measure for `CC(C)S(=O)(=O)c1cnn2c1CN(C(=O)Nc1ccnc(C(F)F)c1)[C@@H](C)C2` [Example 21, (6S)-N-[2-(difluoromethyl)-4-pyridyl]-3-isopropylsulfonyl-6-methyl-6,7-dihydro-4H-pyrazolo[1,5-a]pyrazine-5-carboxamide]: 272 nM; for `C[C@H]1Cn2ncc(S(=O)(=O)C3CCOCC3)c2CN1C(=O)Nc1ccc(F)c(Cl)c1` [Example 15, (6S)-N-(3-chloro-4-fluoro-phenyl)-6-methyl-3-tetrahydropyran-4-ylsulfonyl-6,7-dihydro-4H-pyrazolo[1,5-a]pyrazine-5-carboxamide]: 97 nM; for `C[C@H]1Cn2ncc(S(=O)(=O)N3CC[C@@H](O)C3)c2CN1C(=O)Nc1cc(F)c(F)c(F)c1` [Example 29, (6S)-3-[(3R)-3-hydroxypyrrolidin-1-yl]sulfonyl-6-methyl-N-(3,4,5-trifluorophenyl)-6,7-dihydro-4H-pyrazolol[1,5-a]pyrazine-5-carboxamide]: 146 nM.
The same measure for `C[C@H]1Cn2ncc(S(=O)(=O)N3CC[C@H](O)C3)c2CN1C(=O)Nc1cc(F)c(F)c(F)c1` [Example 33, (6S)-3-[(3S)-3-hydroxypyrrolidin-1-yl]sulfonyl-6-methyl-N-(3,4,5-trifluorophenyl)-6,7-dihydro-4H-pyrazolo[1,5-a]pyrazine-5-carboxamide]: 145 nM.
`C[C@H]1Cn2ncc(N(C)C(=O)OCc3ccccc3)c2CN1C(=O)Nc1cc(F)c(F)c(F)c1` [Example 37, Benzyl N-methyl-N-[(6S)-6-methyl-5-[(3,4,5-trifluorophenyl)carbamoyl]-6,7-dihydro-4H-pyrazolo[1,5-a]pyrazin-3-yl]carbamate] had an EC50 of 475 nM.
Regarding `CC(C)S(=O)(=O)c1cnn2c1CN(C(=O)Nc1cc(F)c(F)c(F)c1)[C@@H](C)C2` [Example 20, (6S)-3-isopropylsulfonyl-6-methyl-N-(3,4,5-trifluorophenyl)-6,7-dihydro-4H-pyrazolo[1,5-a]pyrazine-5-carboxamide], the response was half-maximal at 21 nM (EC50).
The same measure for `C[C@H]1Cn2ncc(S(=O)(=O)N(C)C)c2CN1C(=O)Nc1ccc(F)c(Cl)c1` [Example 24, (6S)-N-(3-chloro-4-fluoro-phenyl)-3-(dimethylsulfamoyl)-6-methyl-6,7-dihydro-4H-pyrazolo[1,5-a]pyrazine-5-carboxamide]: 142 nM; for `C[C@H]1Cn2ncc(S(=O)(=O)C3CC3)c2CN1C(=O)Nc1cc(F)c(F)c(F)c1` [Example 22, (6S)-3-cyclopropylsulfonyl-6-methyl-N-(3,4,5-trifluorophenyl)-6,7-dihydro-4H-pyrazolo[1,5-a]pyrazine-5-carboxamide]: 78 nM.
In turn, `CC1Cn2ncc(S(=O)(=O)C(C)C)c2CN1C(=O)Nc1ccc(F)c(Cl)c1` (stereo not drawn) [Example 12, N-(3-chloro-4-fluoro-phenyl)-3-isopropylsulfonyl-6-methyl-6,7-dihydro-4H-pyrazolo[1,5-a]pyrazine-5-carboxamide] yielded an EC50 of 11 nM.
The same measure for `C[C@H]1Cn2ncc(S(=O)(=O)N3CCC(F)(F)C3)c2CN1C(=O)Nc1cc(F)c(F)c(F)c1` [Example 28, (6S)-3-(3,3-difluoropyrrolidin-1-yl)sulfonyl-6-methyl-N-(3,4,5-trifluorophenyl)-6,7-dihydro-4H-pyrazolo[1,5-a]pyrazine-5-carboxamide]: 168 nM; for `CC(C)NS(=O)(=O)c1cnn2c1CN(C(=O)Nc1ccc(F)c(Cl)c1)[C@@H](C)C2` [Example 25, (6S)-N-(3-chloro-4-fluoro-phenyl)-3-(isopropylsulfamoyl)-6-methyl-6,7-dihydro-4H-pyrazolo[1,5-a]pyrazine-5-carboxamide]: 82 nM.
